Reference: patent US7265103B2, “Substituted amino isoxazoline derivatives and their use as anti-depressants” (Janssen Pharmaceutica NV., priority 2002, dated 2007)

Assays:
[1] = molecular target: T1, hα2A receptor (Homo sapiens, UniProt P08913); experiment: Radioligand binding experiment for α2A-adrenergic receptor ([3H]-raulwolscine); details: CHO cell membranes with human α2A receptor, [3H]raulwolscine 1 nM; read-out: pIC50 α2A (converted)
T1 construct: expressed in transfected cells; host or cells: CHO cells
T1 sequence (P08913 1-465): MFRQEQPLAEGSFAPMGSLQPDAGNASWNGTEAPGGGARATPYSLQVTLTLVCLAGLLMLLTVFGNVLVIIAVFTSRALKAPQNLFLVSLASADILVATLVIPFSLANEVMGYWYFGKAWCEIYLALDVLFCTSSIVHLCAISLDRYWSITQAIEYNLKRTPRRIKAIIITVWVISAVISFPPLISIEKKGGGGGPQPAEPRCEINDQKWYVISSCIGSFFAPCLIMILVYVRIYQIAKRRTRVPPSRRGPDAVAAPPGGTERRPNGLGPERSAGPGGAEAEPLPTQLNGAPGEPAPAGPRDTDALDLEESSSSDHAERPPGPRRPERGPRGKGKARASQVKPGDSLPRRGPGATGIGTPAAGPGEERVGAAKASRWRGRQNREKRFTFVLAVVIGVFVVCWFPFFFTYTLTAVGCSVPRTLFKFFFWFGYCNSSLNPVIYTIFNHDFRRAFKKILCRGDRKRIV
Experimental: (§1) The interaction of the compounds of Formula (I) with hα2-receptors and h5-HT-transporters was assessed in in vitro radioligand binding experiments. In general, a low concentration of a radioligand with a high binding affinity for a particular receptor or transporter is incubated with a sample of a tissue preparation enriched in a particular receptor or transporter or with a preparation of cells expressing cloned human receptors in a buffered medium. During the incubation, the radioligand binds to the receptor or transporter. When equilibrium of binding is reached, the receptor bound radioactivity is separated from the non-bound radioactivity, and the receptor- or transporter-bound activity is counted. The interaction of the test compounds with the receptor is assessed in competition binding experiments. Various concentrations of the test compound are added to the incubation mixture containing the receptor- or transporter preparation and the radioligand. The test compound in proportion to its binding affinity and its concentration inhibits binding of the radioligand. The radioligand used for hα2A, hα2B and hα2C receptor binding was [^3H]-raulwolscine and for the h5-HT transporter was [^3H]paroxetine.
(§2) CHO cells, stabile transfected with human adrenergic-α2A-, -α2B or α2C receptor cDNA, were cultured in Dulbecco's Modified Eagle's Medium (DMEM)/Nutrient mixture Ham's F12 (ratio 1:1)(Gibco, Gent-Belgium) supplemented with 10% heat inactivated fetal calf serum (Life Technologies, Merelbeke-Belgium) and antibiotics (100 IU/ml penicillin G, 100 μg/ml streptomycin sulphate, 110 μg/ml pyruvic acid and 100 μg/ml L-glutamine). One day before collection, cells were induced with 5 mM sodiumbutyrate. Upon 80-90% of confluence, cells were scraped in phosphate buffered saline without Ca^2+ and Mg^2+ and collected by centrifugation at 1500×g for 10 min. The cells were homogenised in Tris-HCl 50 mM using an Ultraturrax homogenizer and centrifuged for 10 min at 23,500×g. The pellet was washed once by resuspension and rehomogenization and the final pellet was resuspended in Tris-HCl, divided in 1 ml aliquots and stored at −70° C.
(§3) Membranes were thawed and re-homogenized in incubation buffer (glycylglycine 25 mM, pH 8.0). In a total volume of 500 μl, 2-10 μg protein was incubated with [^3H]raulwolscine (NET-722) (New England Nuclear, USA) (1 nM final concentration) with or without competitor for 60 min at 25° C. followed by rapid filtration over GF/B filter using a Filtermatel 96 harvester (Packard, Meriden, Conn.). Filters were rinsed extensively with ice-cold rinsing buffer (Tris-HCl 50 mM pH 7.4). Filter-bound radioactivity was determined by scintillation counting in a Topcount (Packard, Meriden, Conn.) and results were expressed as counts per minute (cpm). Non-specific binding was determined in the presence of 1 μM oxymetazoline for hα2A- and hα2B receptors and 1 μM spiroxatrine for hα2C receptors.
(§4) Data from assays in the presence of compound were calculated as a percentage of total binding measured in the absence of test compound. Inhibition curves, plotting percent of total binding versus the log value of the concentration of the test compound, were automatically generated, and sigmoidal inhibition curves were fitted using non-linear regression. The pIC50 values of test compounds were derived from individual curves.

[2] = molecular target: T2, hα2C receptor (Homo sapiens, UniProt P18825); experiment: Radioligand binding experiment for α2C-adrenergic receptor ([3H]-raulwolscine); details: CHO cell membranes with human α2C receptor, [3H]raulwolscine 1 nM; read-out: pIC50 α2C (converted)
T2 construct: expressed in transfected cells; host or cells: CHO cells
T2 sequence (P18825 1-462): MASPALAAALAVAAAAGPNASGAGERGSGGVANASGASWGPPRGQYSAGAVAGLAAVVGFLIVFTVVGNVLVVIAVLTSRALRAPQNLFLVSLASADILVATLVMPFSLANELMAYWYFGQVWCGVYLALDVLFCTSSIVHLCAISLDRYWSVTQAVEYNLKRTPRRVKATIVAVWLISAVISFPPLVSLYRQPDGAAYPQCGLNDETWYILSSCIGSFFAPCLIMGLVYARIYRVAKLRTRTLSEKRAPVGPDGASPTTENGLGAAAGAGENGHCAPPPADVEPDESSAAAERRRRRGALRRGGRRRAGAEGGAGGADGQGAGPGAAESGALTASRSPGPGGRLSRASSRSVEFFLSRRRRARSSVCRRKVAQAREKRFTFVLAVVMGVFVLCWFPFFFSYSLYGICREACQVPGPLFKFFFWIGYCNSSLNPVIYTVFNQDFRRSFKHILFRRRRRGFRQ
Experimental: as §1, §2, §3, §4

[3] = molecular target: T3, h5-HT transporter (Homo sapiens, UniProt P31645); experiment: Radioligand binding experiment for 5-HT transporter ([3H]paroxetine); details: human platelet membranes, [3H]paroxetine 0.5 nM
T3 construct: Human platelet membranes (Oceanix Biosciences Corporation, Hanover, Md., USA) were thawed; tissue Oceanix Biosciences Corporation; host or cells: human platelet membranes
T3 sequence (P31645 whole entry): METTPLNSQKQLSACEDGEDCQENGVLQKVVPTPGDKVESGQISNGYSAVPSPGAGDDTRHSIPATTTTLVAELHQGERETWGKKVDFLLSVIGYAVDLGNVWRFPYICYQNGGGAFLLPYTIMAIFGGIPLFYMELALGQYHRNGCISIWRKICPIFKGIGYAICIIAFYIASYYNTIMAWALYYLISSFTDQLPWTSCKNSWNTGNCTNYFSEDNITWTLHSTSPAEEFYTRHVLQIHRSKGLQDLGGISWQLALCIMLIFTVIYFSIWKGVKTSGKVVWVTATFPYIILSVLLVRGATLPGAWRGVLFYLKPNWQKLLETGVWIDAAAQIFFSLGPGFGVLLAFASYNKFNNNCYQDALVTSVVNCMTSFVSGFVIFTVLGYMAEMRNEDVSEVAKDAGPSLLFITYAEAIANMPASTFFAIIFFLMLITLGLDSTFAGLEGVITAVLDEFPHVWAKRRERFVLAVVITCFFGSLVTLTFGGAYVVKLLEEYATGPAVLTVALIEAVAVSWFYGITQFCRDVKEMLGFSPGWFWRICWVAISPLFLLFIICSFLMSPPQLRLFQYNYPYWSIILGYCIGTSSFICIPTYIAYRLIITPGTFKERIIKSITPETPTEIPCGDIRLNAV
Experimental: as §1
Human platelet membranes (Oceanix Biosciences Corporation, Hanover, Md., USA) were thawed, diluted in buffer (Tris-HCl 50 mM, 120 mM NaCl and 5 mM KCl) and quickly (max 3 s) homogenised with an Ultraturrax homogenizer. In a total volume of 250 μL, 50-100 μg protein was incubated with [^3H]paroxetine (NET-869) (New England Nuclear, USA) (0.5 nM final concentration) with or without competitor for 60 min at 25° C. Incubation was stopped by rapid filtration of the incubation mixture over GF/B filters, pre-wetted with 0.1% polyethyleneamine, using a Filtermatel 96 harvester (Packard, Meriden, Conn.). Filters were rinsed extensively with ice-cold buffer and radioactivity on the filters was counted in a Topcount liquid scintillation counter (Packard, Meriden, Conn.). Data were expressed as cpm. Imipramine (at 1 μM final concentration) was used to determine the non-specific binding.
as §4

Compound	IC50 [1]	IC50 [2]	IC50 [3]
COc1cc2c(cc1N1CCOCC1)OCC1C2=NOC1CN1CCN(CC(C)=Cc2ccc(F)cc2)CC1 (stereo not drawn) [Compound 85]	10 nM	3.16 nM	63.1 nM
COc1cc2c(cc1N)OCC1C2=NOC1CN1CCN(CC(C)=Cc2cccc(F)c2)CC1 (stereo not drawn) [Compound 86]	6.31 nM	1.58 nM	5.01 nM
CNc1ccc2c(c1)OCC1C2=NOC1CN1CCN(CC(C)=Cc2ccccc2)CC1 (stereo not drawn) [Compound 87]	2.51 nM	3.16 nM	50.1 nM
CNc1cc2c(cc1OC)C1=NOC(CN3CCN(CC(C)=Cc4ccccc4)CC3)C1CO2 (stereo not drawn) [Compound 88]	5.01 nM	1.26 nM	20 nM
COc1cc2c(cc1NCCN)OCC1C2=NOC1CN1CCN(CC(C)=Cc2ccc(F)cc2)CC1 (stereo not drawn) [Compound 97]	31.6 nM	6.31 nM	15.8 nM
CCC(CC)Nc1cc2c(cc1OC)C1=NOC(CN3CCN(CC(C)=Cc4ccc(F)cc4)CC3)C1CO2 (stereo not drawn) [Compound 98]	126 nM	100 nM	251 nM
CCC(C)Nc1cc2c(cc1OC)C1=NOC(CN3CCN(CC(C)=Cc4ccc(F)cc4)CC3)C1CO2 (stereo not drawn) [Compound 99]	50.1 nM	50.1 nM	158 nM
COc1cc2c(cc1Nc1ccncc1)OCC1C2=NOC1CN1CCN(CC(C)=Cc2ccc(F)cc2)CC1 (stereo not drawn) [Compound 100]	10 nM	5.01 nM	10 nM
COc1cc2c(cc1N1CCCC1C)OCC1C2=NOC1CN1CCN(CC(C)=Cc2ccc(F)cc2)CC1 (stereo not drawn) [Compound 101]	39.8 nM	31.6 nM	158 nM
COc1cc2c(cc1N1CCC1)OCC1C2=NOC1CN1CCN(CC(C)=Cc2ccc(F)cc2)CC1 (stereo not drawn) [Compound 102]	20 nM	15.8 nM	50.1 nM
COc1cc2c(cc1N1CCC(C)CC1)OCC1C2=NOC1CN1CCN(CC(C)=Cc2ccc(F)cc2)CC1 (stereo not drawn) [Compound 103]	79.4 nM	63.1 nM	126 nM
CCC(C)CNc1cc2c(cc1OC)C1=NOC(CN3CCN(CC(C)=Cc4ccc(F)cc4)CC3)C1CO2 (stereo not drawn) [Compound 104]	126 nM	126 nM	316 nM
CCNc1cc2c(cc1OC)C1=NOC(CN3CCN(CC(C)=Cc4ccc(F)cc4)CC3)C1CO2 (stereo not drawn) [Compound 105]	50.1 nM	31.6 nM	20 nM
C=CC(=O)Nc1cc2c(cc1OC)C1=NOC(CN3CCN(CC(C)=Cc4ccc(F)cc4)CC3)C1CO2 (stereo not drawn) [Compound 106]	6.31 nM	12.6 nM	31.6 nM
COc1cc2c(cc1N1CCC1=O)OCC1C2=NOC1CN1CCN(CC(C)=Cc2ccc(F)cc2)CC1 (stereo not drawn) [Compound 107]	7.94 nM	10 nM	50.1 nM
CC(=Cc1ccc(F)cc1)CN1CCN(CC2ON=C3c4ccc(N(C)CCOC(=O)C5CCC5)cc4OCC32)CC1 (stereo not drawn) [Compound 108]	200 nM	50.1 nM	79.4 nM
CC(=Cc1ccc(F)cc1)CN1CCN(CC2ON=C3c4ccc(N(C)CCOC(=O)C5CC5)cc4OCC32)CC1 (stereo not drawn) [Compound 109]	158 nM	31.6 nM	39.8 nM
CC(=Cc1ccc(F)cc1)CN1CCN(CC2ON=C3c4ccc(N(C)CCNC(C)C(C)C)cc4OCC32)CC1 (stereo not drawn) [Compound 110]	39.8 nM	5.01 nM	5.01 nM
CC(=Cc1ccc(F)cc1)CN1CCN(CC2ON=C3c4ccc(N(C)CCNC5CCC5)cc4OCC32)CC1 (stereo not drawn) [Compound 111]	25.1 nM	6.31 nM	12.6 nM
CCCC(C)C(=O)Nc1cc2c(cc1OC)C1=NOC(CN3CCN(CC(C)=Cc4ccc(F)cc4)CC3)C1CO2 (stereo not drawn) [Compound 113]	79.4 nM	39.8 nM	63.1 nM
CCC(C)C(=O)Nc1cc2c(cc1OC)C1=NOC(CN3CCN(CC(C)=Cc4ccc(F)cc4)CC3)C1CO2 (stereo not drawn) [Compound 114]	25.1 nM	20 nM	31.6 nM
